Test results from patent US11744246B2, “Preparation of mammalian oocyte for fertilization via a soluble human PH20 hyaluronidase polypeptide” (SYNGENTA PARTICIPATIONS AG, priority 2017, dated 2023).

Tests used:
Type in all cases: cell-based
[1] = system: Glomerella lagenarium (Colletotrichum lagenarium); assay: Glomerella Lagenarium (Colletotrichum Lagenarium)/Liquid Culture (Anthracnose); details: Colletotrichum orbiculare, liquid culture, growth inhibition photometrically 3-4 days after application, compared to untreated control
[2] = system: Magnaporthe grisea (Pyricularia oryzae); assay: microbe, parasite or virus in culture; details: read-out: control of Magnaporthe grisea
[3] = system: Botryotinia fuckeliana (Botrytis cinerea); assay: Botryotinia fuckeliana (Botrytis cinerea)/Liquid Culture (Gray Mould); details: 72 h, liquid culture, growth inhibition photometrically 3-4 days after application, compared to untreated control
[4] = system: Monographella nivalis (Microdochium nivale); assay: Monographella nivalis (Microdochium nivale)/Liquid Culture (Foot Rot Cereals); details: 96 h, liquid culture, growth inhibition photometrically 4-5 days after application, compared to untreated control
Fusarium culmorum = assay: microbe, parasite or virus in culture; details: 72 h, read-out: control of Fusarium culmorum

Measured: inhibition of growth at 20 ppm

CC(COc1ccccc1F)(CC(F)(F)F)C(=O)Nc1cnc2c(F)cccc2c1 (stereo not shown) [E.01, 4,4,4-trifluoro-2-[(2-fluorophenoxy)methyl]-N-(8-fluoro-3-quinolyl)-2-methyl-butanamide]
≥ 80%: all assays above

CC(COc1cccc(F)c1)(CC(F)(F)F)C(=O)Nc1cnc2c(F)cccc2c1 (stereo not shown) [E.02, 4,4,4-trifluoro-2-[(3-fluorophenoxy)methyl]-N-(8-fluoro-3-quinolyl)-2-methyl-butanamide]
≥ 80%: all assays above

CC(COc1ccc(F)cc1)(CC(F)(F)F)C(=O)Nc1cnc2c(F)cccc2c1 (stereo not shown) [E.03, 4,4,4-trifluoro-2-[(4-fluorophenoxy)methyl]-N-(8-fluoro-3-quinolyl)-2-methyl-butanamide]
≥ 80%: all assays above

CC(C)(C)COCC(C)(CC(F)(F)F)C(=O)Nc1cnc2c(F)cccc2c1 (stereo not shown) [E.04, 2-(2,2-dimethylpropoxymethyl)-4,4,4-trifluoro-N-(8-fluoro-3-quinolyl)-2-methyl-butanamide]
≥ 80%: all assays above

CC(COc1ccc(Cl)cc1)(CC(F)(F)F)C(=O)Nc1cnc2c(F)cccc2c1 (stereo not shown) [E.05, 2-[(4-chlorophenoxy)methyl]-4,4,4-trifluoro-N-(8-fluoro-3-quinolyl)-2-methyl-butanamide]
≥ 80%: all assays above

CC1(OCC(C)(CC(F)(F)F)C(=O)Nc2cnc3c(F)cccc3c2)CCCC1 (stereo not shown) [E.06, 4,4,4-trifluoro-N-(8-fluoro-3-quinolyl)-2-methyl-2-[(1-methylcyclopentoxy)meth-yl]butanamide]
≥ 80%: all assays above

CC(COC1CCC1)(CC(F)(F)F)C(=O)Nc1cnc2c(F)cccc2c1 (stereo not shown) [E.07, 2-(cyclobutoxymethyl)-4,4,4-trifluoro-N-(8-fluoro-3-quinolyl)-2-methyl-butanamide]
≥ 80%: all assays above

CC(COC1CCCCC1)(CC(F)(F)F)C(=O)Nc1cnc2c(F)cccc2c1 (stereo not shown) [E.08, 2-(cyclohexoxymethyl)-4,4,4-trifluoro-N-(8-fluoro-3-quinolyl)-2-methyl-butanamide]
≥ 80%: all assays above
